“And” between values parts separate entries of the source, which are not always exact repeats. Equal values may be shown once. Read-outs that look alike come from different tables or passages of the source.
Key:
Type in all cases: cell-based
[1] = test system: EOC 13.31 microglia cells; test: NO release inhibition in LPS/IFNγ stimulated microglia, concurrent treatment, Griess reaction at 24 hours (Example 6); conditions: for NO release, Avg / inhibition at 50 µM: 24 hours; for inhibition at 50 µM: Microglia
Method in brief: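 Confluent EOC 13.31 microglia were given 50 μM compound together with 1 pg/ml LPS plus 1 ng/ml IFNγ, or without stimulation. NO release was quantified spectrophotometrically by Griess reaction 24 hours later.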

[2] = test system: Microglial cells; test: Dose response inhibition of NO release from microglia, 0.5-500 μM (Example 9); conditions: for μM NO release / μM NO release (No LPS average subtracted): 3 replicates
Description: This experiment was designed to determine the dose response inhibition of NO release from microglia by bis- and tris-dihydroxyaryl compounds when stimulated with LPS/IFNγ. Earlier experiments have demonostrated that some bis- and tris-dihydroxyaryl compounds are good inhibitors of NO release from microglia. This experiment is designed to determine a dose response for various effective bis- and tris-dihydroxyaryl compounds. Microglial cells were plated into 96 well plates at 1×10^5 cells/ml. At 48 hours, media was exchanged for media containing 10 ng/ml IFNγ and 10 μg/ml LPS and the following compounds 3, 4, 21, 26 and the positive control L-NAME. The doses tested were: 0.5 μM, 1.0 μM, 5.0 μM, 10 μM, 25 μM, 50 μM, 100 μM, 250 μM, and 500 μM. Nitric oxide release was measured after 48 hours using the Griess reaction.

[3] = test system: TNF-α release from microglia; test: TNF-α release from LPS/IFNγ stimulated microglia, TNF-α ELISA (Example 11); conditions: 50 uM compound, TNF-α release, 10 ug LPS and 10 ng IFNγ, 24 hours
Method in brief: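 Microglia pretreated 1 h with 50 μM bis-/tris-dihydroxyaryl compound, then stimulated with 10 μg/ml LPS + 10 ng/ml IFNγ for 24 h. Medium sampled, stored at −80°, diluted 1:50 and TNF-α measured by ELISA.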

[4] = test system: microglia; test: Ranking of NO release inhibition (Example 12); conditions: Microglia, ranking table
Description: The bis- and tris-dihydroxyaryl compounds were ranked in order of effectiveness for the inhibition of NO release as set out in Table 8.

[5] = dose 0.5 μM, LPS/IFNγ, 48 hours
[6] = dose 100 μM, LPS/IFNγ, 48 hours
[7] = dose 250 μM, LPS/IFNγ, 48 hours
[8] = dose 500 μM, LPS/IFNγ, 48 hours

## O=C(N[C@@H]1CCCC[C@H]1NC(=O)c1ccc(O)c(O)c1)c1ccc(O)c(O)c1 (relative stereo) [Compound 26, N,N′-bis(3,4-dihydroxybenzoyl)-trans-1,2-diaminocyclohexane]
[1]; 50 μM, LPS/IFNγ stimulated microglial cells
  inhibition of NO release, in words: very effective inhibitors of NO release
[1]; Compound + LPS/IFNγ, 50 μM
  NO release, Avg: 14.8384 µM
[1]; Compound Only (without LPS/IFNγ), 50 μM
  NO release, Avg: 0.0000 µM
[1]; Compound + LPS/IFNγ, read-out: % inhibition of NO release
  inhibition at 50 µM: 20.3%
[1]; Table 2 summary, LPS/IFNγ, read-out: % Inhibition (summary of inhibition of NO release)
  inhibition at 50 µM: 20.3%
[2]; Microglia, 48 h, dose 0.5 μM, NO release, LPS/IFNγ, 48 hours, read-out: Avg % Inhibition
  inhibition at 0.5 µM: -4.06%
[2]; Microglia, 48 h, dose 1 μM, NO release, LPS/IFNγ, 48 hours, read-out: Avg % Inhibition
  inhibition at 1 µM: 0.51%
[2]; Microglia, 48 h, dose 5 μM, NO release, LPS/IFNγ
  inhibition at 5 µM: -4.31%
[2]; Microglia, 48 h, dose 10 μM, NO release, LPS/IFNγ
  inhibition at 10 µM: -1.01%
[2]; Microglia, 48 h, dose 25 μM, NO release, LPS/IFNγ
  inhibition at 25 µM: 6.85%
[2]; Microglia, 48 h, dose 50 μM, NO release, LPS/IFNγ
  inhibition at 50 µM: 6.59%
[2]; Microglia, 48 h, dose 100 μM, NO release, LPS/IFNγ, 48 hours, read-out: Avg % Inhibition
  inhibition at 100 µM: 16.2%
[2]; Microglia, 48 h, dose 100 μM, individual replicates, NO release, LPS/IFNγ, 48 hours, read-out: % inhibition
  inhibition at 100 µM: 17.2%
[2]; Microglia, 48 h, dose 250 μM, NO release, LPS/IFNγ, 48 hours, read-out: Avg % Inhibition
  inhibition at 250 µM: 35.2%
[2]; Microglia, 48 h, dose 250 μM, individual replicates, NO release, LPS/IFNγ, 48 hours, read-out: % inhibition
  inhibition at 250 µM: 36.3%
[2]; Microglia, 48 h, dose 500 μM, NO release, LPS/IFNγ, 48 hours, read-out: Avg % Inhibition
  inhibition at 500 µM: 99.5%
[2]; Microglia, 48 h, dose 500 μM, individual replicates, NO release, LPS/IFNγ, 48 hours, read-out: % inhibition
  inhibition at 500 µM: 98.4%
[2]; Microglia, 48 h, highest concentration tested (500 μM), 48 hours, read-out: inhibited NO release by
  inhibition at 500 µM: 99%
[2]; [5]
  μM NO release: 21.667 µM and 19.306 µM and 21.111 µM
  μM NO release (No LPS average subtracted): 19.97 µM and 17.61 µM and 19.41 µM
[2]; dose 0.5 μM, individual replicates, NO release, LPS/IFNγ, 48 hours
  % inhibition: −9.38% and 3.55% and −6.34%
[2]; dose 1 μM, LPS/IFNγ, 48 hours
  μM NO release: 19.722 µM and 19.028 µM and 20.833 µM
  μM NO release (No LPS average subtracted): 18.02 µM and 17.33 µM and 19.13 µM
[2]; dose 1 μM, individual replicates, NO release, LPS/IFNγ, 48 hours
  % inhibition: 1.27% and 5.07% and −4.82%
[2]; dose 5 μM, LPS/IFNγ, 48 hours
  μM NO release: 20.000 µM and 21.528 µM and 20.694 µM
  μM NO release (No LPS average subtracted): 18.30 µM and 19.83 µM and 18.99 µM
[2]; dose 5 μM, individual replicates, NO release, LPS/IFNγ, 48 hours
  % inhibition: −0.25% and −8.62%
[2]; dose 10 μM, LPS/IFNγ, 48 hours
  μM NO release: 20.139 µM and 19.583 µM and 20.694 µM
  μM NO release (No LPS average subtracted): 18.44 µM and 17.88 µM and 18.99 µM
[2]; dose 10 μM, individual replicates, NO release, LPS/IFNγ, 48 hours
  % inhibition: 2.03%
[2]; dose 25 μM, LPS/IFNγ, 48 hours
  μM NO release: 18.194 µM and 18.333 µM and 19.583 µM
  μM NO release (No LPS average subtracted): 16.49 µM and 16.63 µM and 17.88 µM
[2]; dose 25 μM, individual replicates, NO release, LPS/IFNγ, 48 hours
  % inhibition: 9.64% and 8.88% and 2.03%
[2]; dose 50 μM, LPS/IFNγ, 48 hours
  μM NO release: 18.333 μM (2×) and 19.583 μM
  μM NO release (No LPS average subtracted): 16.63 μM (2×) and 17.88 μM
[2]; dose 50 μM, individual replicates, NO release, LPS/IFNγ, 48 hours
  % inhibition: 8.88% (2×) and 2.03%
[2]; [6]
  μM NO release: 16.806 μM (2×) and 17.361 μM
  μM NO release (No LPS average subtracted): 15.11 μM (2×) and 15.66 μM
[2]; dose 100 μM, individual replicates, NO release, LPS/IFNγ, 48 hours
  % inhibition: 14.20%
[2]; [7]
  μM NO release: 13.333 µM and 13.194 µM and 14.028 µM
  μM NO release (No LPS average subtracted): 11.63 µM and 11.49 µM and 12.33 µM
[2]; dose 250 μM, individual replicates, NO release, LPS/IFNγ, 48 hours
  % inhibition: 37.03% and 32.46%
[2]; [8]
  μM NO release: 2.000 µM and 1.500 µM and 1.867 µM
  μM NO release (No LPS average subtracted): 0.30 µM and -0.20 µM and 0.17 µM
[2]; dose 500 μM, individual replicates, NO release, LPS/IFNγ, 48 hours
  % inhibition: 101.10% and 99.09%
[3]; individual replicates, 50 µM
  % inhibition: −12.44% and −21.81% and −16.22%
[3]; Microglia, 24 h, read-out: Avg % Inhibition
  inhibition at 50 µM: -16.8%
[4]
  inhibition at 50 µM: 20%

— patent US20070208087A1, “Compounds, compositions and methods for the treatment of inflammatory diseases” (priority 2001, published 2007)
